Reference: PubChem BioAssay AID1259407 (Chemical Carcinogenesis Research Information System (CCRIS), 2018)
Calls of active or inactive are those of the source. No rule for the calls is given here.

Test system: CCRIS mutagenicity, Ames/micronucleus/aberration tests
Assay: CCRIS mutagenicity studies
[1] = Test System: AMES SALMONELLA TYPHIMURIUM, Strain/Indicator: TA98, Metabolic Activation: NONE, Method: STANDARD PLATE
[2] = Test System: AMES SALMONELLA TYPHIMURIUM, Strain/Indicator: TA98, Metabolic Activation: RAT, LIVER, S-9, AROCLOR 1254, Method: STANDARD PLATE
[3] = Test System: AMES SALMONELLA TYPHIMURIUM, Strain/Indicator: TA100, Metabolic Activation: RAT, LIVER, S-9, AROCLOR 1254, Method: STANDARD PLATE
[4] = Test System: AMES SALMONELLA TYPHIMURIUM, Strain/Indicator: TA98, Metabolic Activation: NONE, Method: PREINCUBATION
[5] = Test System: AMES SALMONELLA TYPHIMURIUM, Strain/Indicator: TA100, Metabolic Activation: NONE, Method: PREINCUBATION
[6] = Test System: AMES SALMONELLA TYPHIMURIUM, Strain/Indicator: TA1535, Metabolic Activation: NONE, Method: PREINCUBATION
[7] = Test System: AMES SALMONELLA TYPHIMURIUM, Strain/Indicator: TA1537, Metabolic Activation: NONE, Method: PREINCUBATION

## CS(=O)(=O)Nc1ccc([N+](=O)[O-])cc1Oc1ccccc1
End Point: IN VIVO CHROMOSOMAL ABERRATIONS, Test System: BONE MARROW CELLS, Species: MOUSE, Strain/Sex: SWISS/MALE, FEMALE, Route: GAVAGE (TEST MATERIAL SOLVENT: WATER)
  mutagenic call: active; positive (structural changes)

## Br/C=C/Br
Test System: AMES SALMONELLA TYPHIMURIUM, Strain/Indicator: TA97, Metabolic Activation: NONE, Method: STANDARD PLATE
  mutagenic call: inactive; negative
Test System: AMES SALMONELLA TYPHIMURIUM, Strain/Indicator: TA97, Metabolic Activation: RAT, LIVER, S-9, AROCLOR 1254, Method: STANDARD PLATE
  mutagenic call: active; positive
[1]
  mutagenic call: active; positive
[2]
  mutagenic call: active; positive
Test System: AMES SALMONELLA TYPHIMURIUM, Strain/Indicator: TA100, Metabolic Activation: NONE, Method: STANDARD PLATE
  mutagenic call: active; positive
[3]
  mutagenic call: active; positive
Test System: AMES SALMONELLA TYPHIMURIUM, Strain/Indicator: TA104, Metabolic Activation: NONE, Method: STANDARD PLATE
  mutagenic call: inactive; negative
Test System: AMES SALMONELLA TYPHIMURIUM, Strain/Indicator: TA104, Metabolic Activation: RAT, LIVER, S-9, AROCLOR 1254, Method: STANDARD PLATE
  mutagenic call: active; positive

## O=Nc1ccc(Sc2ccccc2)cc1
Test System: AMES SALMONELLA TYPHIMURIUM, Strain/Indicator: TA98(NR), Metabolic Activation: NONE, Method: STANDARD PLATE
  mutagenic call: active; positive
[1]
  mutagenic call: active; positive
[2]
  mutagenic call: active; positive

## CC(C)=CCC/C(C)=C/C=C/C(C)=C/C=C/C(C)=C/C=C/C=C(C)/C=C/C=C(C)/C=C/C=C(\C)CCC=C(C)C
[4]
  mutagenic call: inactive; negative
Test System: AMES SALMONELLA TYPHIMURIUM, Strain/Indicator: TA98, Metabolic Activation: RAT LIVER S-9, Method: PREINCUBATION
  mutagenic call: inactive; negative
[5]
  mutagenic call: inactive; negative
Test System: AMES SALMONELLA TYPHIMURIUM, Strain/Indicator: TA100, Metabolic Activation: RAT LIVER S-9, Method: PREINCUBATION
  mutagenic call: inactive; negative
[6]
  mutagenic call: inactive; negative
Test System: AMES SALMONELLA TYPHIMURIUM, Strain/Indicator: TA1535, Metabolic Activation: RAT LIVER S-9, Method: PREINCUBATION
  mutagenic call: inactive; negative
[7]
  mutagenic call: inactive; negative
Test System: AMES SALMONELLA TYPHIMURIUM, Strain/Indicator: TA1537, Metabolic Activation: RAT LIVER S-9, Method: PREINCUBATION
  mutagenic call: inactive; negative
Test System: ESCHERICHIA COLI, Strain/Indicator: WP2 UVR A, Metabolic Activation: NONE, Method: PREINCUBATION
  mutagenic call: inactive; negative
Test System: ESCHERICHIA COLI, Strain/Indicator: WP2 UVR A, Metabolic Activation: RAT LIVER S-9, Method: PREINCUBATION
  mutagenic call: inactive; negative

## Nc1nc(=S)c2[nH]cnc2[nH]1
End Point: IN VITRO CHROMOSOMAL ABERRATIONS, Test System: HUMAN HCT116/3-6 CELLS, Metabolic Activation: NONE
  mutagenic call: active; positive
End Point: IN VITRO CHROMOSOMAL ABERRATIONS, Test System: HUMAN HCT116 CELLS, Metabolic Activation: NONE
  mutagenic call: active; positive
End Point: IN VITRO CHROMOSOMAL ABERRATIONS, Test System: HUMAN MT1 CELLS, Metabolic Activation: NONE
  mutagenic call: active; positive
End Point: IN VITRO CHROMOSOMAL ABERRATIONS, Test System: HUMAN TK6 CELLS, Metabolic Activation: NONE
  mutagenic call: active; positive

## Nc1nc(N)nc(N)n1
End Point: IN VITRO CHROMOSOMAL ABERRATIONS, Test System: CHINESE HAMSTER OVARY CELLS, Metabolic Activation: NONE
  mutagenic call: inactive; negative
End Point: IN VITRO CHROMOSOMAL ABERRATIONS, Test System: CHINESE HAMSTER OVARY CELLS, Metabolic Activation: RAT, LIVER, S-9, AROCLOR 1254
  mutagenic call: inactive; negative
Test System: AMES SALMONELLA TYPHIMURIUM, Strain/Indicator: TA98, Metabolic Activation: HAMSTER, LIVER, S-9, AROCLOR 1254, Method: PREINCUBATION
  mutagenic call: inactive; negative
[4]
  mutagenic call: inactive; negative
Test System: AMES SALMONELLA TYPHIMURIUM, Strain/Indicator: TA98, Metabolic Activation: RAT, LIVER, S-9, AROCLOR 1254, Method: PREINCUBATION
  mutagenic call: inactive; negative
Test System: AMES SALMONELLA TYPHIMURIUM, Strain/Indicator: TA100, Metabolic Activation: HAMSTER, LIVER, S-9, AROCLOR 1254, Method: PREINCUBATION
  mutagenic call: inactive; negative
[5]
  mutagenic call: inactive; negative
Test System: AMES SALMONELLA TYPHIMURIUM, Strain/Indicator: TA100, Metabolic Activation: RAT, LIVER, S-9, AROCLOR 1254, Method: PREINCUBATION
  mutagenic call: inactive; negative
Test System: AMES SALMONELLA TYPHIMURIUM, Strain/Indicator: TA1535, Metabolic Activation: HAMSTER, LIVER, S-9, AROCLOR 1254, Method: PREINCUBATION
  mutagenic call: inactive; negative
[6]
  mutagenic call: inactive; negative
Test System: AMES SALMONELLA TYPHIMURIUM, Strain/Indicator: TA1535, Metabolic Activation: RAT, LIVER, S-9, AROCLOR 1254, Method: PREINCUBATION
  mutagenic call: inactive; negative
Test System: AMES SALMONELLA TYPHIMURIUM, Strain/Indicator: TA1537, Metabolic Activation: HAMSTER, LIVER, S-9, AROCLOR 1254, Method: PREINCUBATION
  mutagenic call: inactive; negative
[7]
  mutagenic call: inactive; negative
Test System: AMES SALMONELLA TYPHIMURIUM, Strain/Indicator: TA1537, Metabolic Activation: RAT, LIVER, S-9, AROCLOR 1254, Method: PREINCUBATION
  mutagenic call: inactive; negative
Test System: UDS RAT HEPATOCYTES, Strain/Indicator: BROMODEOXYURIDINE INCORP, Metabolic Activation: NONE, Method: FLOW CYTOMETRIC ANALYSIS
  mutagenic call: inactive; negative
Test System: UDS RAT HEPATOCYTES, Strain/Indicator: THY INCORP, Metabolic Activation: NONE, Method: AUTORADIOGRAPHY
  mutagenic call: inactive; negative

## CCC[CH2][Sn]([CH2]CCC)([CH2]CCC)[O][Sn]([CH2]CCC)([CH2]CCC)[CH2]CCC
Test System: AMES SALMONELLA TYPHIMURIUM, Strain/Indicator: TA97, Metabolic Activation: HAMSTER, LIVER, S-9, AROCLOR 1254 (10 OR 30%), Method: PREINCUBATION
  mutagenic call: inactive; negative
Test System: AMES SALMONELLA TYPHIMURIUM, Strain/Indicator: TA97, Metabolic Activation: NONE, Method: PREINCUBATION
  mutagenic call: inactive; negative
Test System: AMES SALMONELLA TYPHIMURIUM, Strain/Indicator: TA97, Metabolic Activation: RAT, LIVER, S-9, AROCLOR 1254 (10 OR 30%), Method: PREINCUBATION
  mutagenic call: inactive; negative
Test System: AMES SALMONELLA TYPHIMURIUM, Strain/Indicator: TA98, Metabolic Activation: HAMSTER, LIVER, S-9, AROCLOR 1254 (10 OR 30%), Method: PREINCUBATION
  mutagenic call: inactive; negative
[4]
  mutagenic call: inactive; negative
Test System: AMES SALMONELLA TYPHIMURIUM, Strain/Indicator: TA98, Metabolic Activation: NONE, Method: SUSPENSION/PLATE
  mutagenic call: inactive; negative
Test System: AMES SALMONELLA TYPHIMURIUM, Strain/Indicator: TA98, Metabolic Activation: RAT, LIVER, S-9, AROCLOR 1254 (10 OR 30%), Method: PREINCUBATION
  mutagenic call: inactive; negative
Test System: AMES SALMONELLA TYPHIMURIUM, Strain/Indicator: TA100, Metabolic Activation: HAMSTER, LIVER, S-9, AROCLOR 1254 (10 OR 30%), Method: PREINCUBATION
  mutagenic call: inactive; negative
[5]
  mutagenic call: inactive; negative
Test System: AMES SALMONELLA TYPHIMURIUM, Strain/Indicator: TA100, Metabolic Activation: NONE, Method: SUSPENSION/PLATE
  mutagenic call: inactive; negative
Test System: AMES SALMONELLA TYPHIMURIUM, Strain/Indicator: TA100, Metabolic Activation: RAT, LIVER, S-9, AROCLOR 1254 (10 OR 30%), Method: PREINCUBATION
  mutagenic call: inactive; negative
Test System: AMES SALMONELLA TYPHIMURIUM, Strain/Indicator: TA1535, Metabolic Activation: HAMSTER, LIVER, S-9, AROCLOR 1254 (10 OR 30%), Method: PREINCUBATION
  mutagenic call: inactive; negative
[6]
  mutagenic call: inactive; negative
Test System: AMES SALMONELLA TYPHIMURIUM, Strain/Indicator: TA1535, Metabolic Activation: RAT, LIVER, S-9, AROCLOR 1254 (10 OR 30%), Method: PREINCUBATION
  mutagenic call: inactive; negative

## O=C1c2ccccc2-c2cccc3cccc1c23
[1]
  mutagenic call: inactive; negative
[2]
  mutagenic call: active; positive
[3]
  mutagenic call: active; positive
